Like-named read-outs stand apart in the source and are kept apart here.

Assay [1] concerns human platelet rich plasma (PRP). In words: ADP induced platelet aggregation assay. To be noted: Homo sapiens, Platelet, 5 min, read-out: PA IC50 (μM) @ 10 μM ADP, human PRP, 10 μM ADP, AUC at 5 minute.
Experimental: The ability of P2Y1 antagonists covered in the present invention to inhibit platelet aggregation induced by 10 μM ADP was tested using human platelet rich plasma (PRP) as described in Platelet Protocols: Research and Clinical Laboratory Procedures (White, M. M. et al., Academic Press (1999)). Human blood was collected in 30 μM (final concentration in blood) argatroban (GSK) as the anticoagulant at a ratio of 1 mL per 9 mL of blood. The PRP was isolated by centrifugation at 170 g for 12 minutes. The platelet poor plasma (PPP) was used as the blank for optical aggregometry. Compounds of the present invention in DMSO solution was preincubated with 250 μL PRP at 37° C. for 1 minute with stirring speed of 1000 rpm. Aggregation was initiated by addition of 2.5 μL of 1 mM ADP (Chrono-log, Havertown, Pa.) for a final ADP concentration of 10 μM. Platelet aggregation was monitored using Optical Aggregometer (Chrono-log, Havertown, Pa.) and the area under the curve (AUC) at 5 minute was measured. IC50 was calculated using vehicle control as 0% inhibition.
Assay [2] concerns the target cloned human P2Y1 receptors (Homo sapiens (Human), UniProt P47900). In words: Binding Assay B - Scintillation Proximity Assay (SPA) for P2Y1 binding, [33P] 2MeS-ADP. To be noted: read-out: P2Y1 Ki (nM) using binding assay B. As for the experimental part:
Binding Assay B—Scintillation Proximity Assay (SPA) for P2Y1 Binding
A SPA membrane binding assay was used to identify inhibitors of [^33P] […] Reactions were allowed to proceed to completion at room temperature for 1 hour followed by centrifugation of the plate for 5 min. About 40 μL of the aqueous solution was aspirated. Plates were sealed and the [^33P]
On the technique in general: In a scintillation proximity assay essentially only radioactivity close to the scintillant gives light.

Setting [3] is: SPA, 0.3 nM [33P] 2MeS-ADP, Cheng-Prusoff.

cloned human P2Y1 receptors, sequence (P47900 whole entry): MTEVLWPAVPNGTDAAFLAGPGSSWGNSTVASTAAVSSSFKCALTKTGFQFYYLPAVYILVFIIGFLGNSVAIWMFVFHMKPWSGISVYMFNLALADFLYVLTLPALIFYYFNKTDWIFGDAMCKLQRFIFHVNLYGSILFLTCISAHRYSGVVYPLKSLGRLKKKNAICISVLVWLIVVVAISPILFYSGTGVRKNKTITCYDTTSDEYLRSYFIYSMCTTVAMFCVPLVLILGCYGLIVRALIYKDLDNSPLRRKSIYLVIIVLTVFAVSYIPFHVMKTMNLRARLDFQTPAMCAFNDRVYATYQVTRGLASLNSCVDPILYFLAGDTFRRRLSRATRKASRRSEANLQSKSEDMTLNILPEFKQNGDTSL

In general, IC50 refers to the concentration at which inhibition is half-maximal. One may read the Ki as a dissociation constant, usually derived from enzyme kinetics or from competition with a known ligand. As to `CC(C)CN1CCc2nc(NC(=O)Nc3ccccc3N3CC(C)(C)c4c(C(F)(F)F)ccc(O)c43)sc2C1` [Example 21, 1-(2-(7-Hydroxy-3,3-dimethyl-4-(trifluoromethyl)indolin-1-yl)phenyl)-3-(5-isobutyl-4,5,6,7-tetrahydrothiazolo[5,4-c]pyridin-2-yl)urea], in assay [1], the half-maximal inhibitory concentration (IC50) was determined as 0.07 µM. Further, the inhibition constant (Ki) in assay [2] (setting [3]) amounted to 7.9 nM.

For `CC1(C)CN(c2ccccc2NC(=O)Nc2nc3c(s2)CN(CC2CC2)CC3)c2c(O)ccc(C(F)(F)F)c21` [Example 23, 1-(5-(Cyclopropylmethyl)-4,5,6,7-tetrahydrothiazolo[5,4-c]pyridin-2-yl)-3-(2-(7-hydroxy-3,3-dimethyl-4-(trifluoromethyl)indolin-1-yl)phenyl)urea], in assay [1], the IC50 is 1.01 µM. The inhibition constant Ki in assay [2] (setting [3]) worked out at 10.4 nM.

Regarding `Cn1nc(C(F)(F)F)cc1-c1c(F)cc(O)c2c1C(C)(C)CN2c1ccccc1NC(=O)Nc1ccc(OC(F)(F)F)cc1` [Example 183, 1-(2-(5-Fluoro-7-hydroxy-3,3-dimethyl-4-(1-methyl-3-(trifluoromethyl)-1H-pyrazol-5-yl)indolin-1-yl)phenyl)-3-(4-(trifluoromethoxy)phenyl)urea], the half-maximal inhibitory concentration (IC50) in assay [1] stood at 0.21 µM. In assay [2] (setting [3]), the Ki was 11.3 nM.

Regarding `CC1(C)CN(c2ccccc2NC(=O)Nc2nc3ccc(F)nc3s2)c2c(O)ccc(-c3nc4ccc(Cl)cc4o3)c21` [Example 108, 1-(2-(4-(6-Chlorobenzo[d]oxazol-2-yl)-7-hydroxy-3,3-dimethylindolin-1-yl)phenyl)-3-(5-fluorothiazolo[5,4-b]pyridin-2-yl)urea], in assay [1], the concentration for half-maximal inhibition (IC50) is 0.19 µM. Also, the Ki in assay [2] (setting [3]) turned out to be 9.7 nM.

For the molecule `CC1(C)CN(c2ccccc2NC(=O)Nc2ccc(OC(F)(F)F)cc2)c2c(O)cc(F)c(-c3cccc(CN4CCOCC4)c3)c21` [Example 251, 1-(2-(5-Fluoro-7-hydroxy-3,3-dimethyl-4-(3-(morpholinomethyl)phenyl)indolin-1-yl)phenyl)-3-(4-(trifluoromethoxy)phenyl)urea], the half-inhibitory concentration (IC50) in assay [1] stood at 0.93 µM. In addition, the inhibition constant (Ki) in assay [2] (setting [3]) was 16.9 nM.

Take `CCC1(CC)CN(c2ccccc2NC(=O)Nc2ccc(OC(F)(F)F)cc2)c2c(O)cc(F)cc21` [Example 5, 1-(2-(3,3-Diethyl-5-fluoro-7-hydroxyindolin-1-yl)phenyl)-3-(4-(trifluoromethoxy)phenyl)urea]: in assay [1], the 50% inhibitory concentration (IC50) amounted to 1.05 µM. Moreover, in assay [2] (setting [3]), the Ki is 16 nM.

Take `CC(C)(C)CN1CCc2nc(NC(=O)Nc3ccccc3N3CC(C)(C)c4c(C(F)(F)F)ccc(O)c43)sc2C1` [Example 22, 1-(2-(7-Hydroxy-3,3-dimethyl-4-(trifluoromethyl)indolin-1-yl)phenyl)-3-(5-neopentyl-4,5,6,7-tetrahydrothiazolo[5,4-c]pyridin-2-yl)urea]: in assay [1], the concentration for half-maximal inhibition (IC50) was 0.21 µM. Moreover, in assay [2] (setting [3]), the Ki is 8 nM.

Consider `CCC1(CC)CN(c2ccccc2NC(=O)Nc2nc3c(s2)CN(CC(F)(F)F)CC3)c2c(O)ccc(Cl)c21` [Example 55, 1-(2-(4-Chloro-3,3-diethyl-7-hydroxyindolin-1-yl)phenyl)-3-(5-(2,2,2-trifluoroethyl)-4,5,6,7-tetrahydrothiazolo[5,4-c]pyridin-2-yl)urea], for which, in assay [1], the IC50 worked out at 0.63 µM. The inhibitory constant (Ki) in assay [2] (setting [3]) turned out to be 16.2 nM.

`Cc1cc(-c2c(F)cc(O)c3c2C(C)(C)CN3c2ccccc2NC(=O)Nc2ccc(OC(F)(F)F)cc2)ccn1` [Example 191, 1-(2-(5-Fluoro-7-hydroxy-3,3-dimethyl-4-(2-methylpyridin-4-yl)indolin-1-yl)phenyl)-3-(4-(trifluoromethoxy)phenyl)urea]: the concentration for half-maximal inhibition (IC50) in assay [1] was 0.19 µM. Besides, in assay [2] (setting [3]), the Ki was found to be 12.3 nM.

For the molecule `CCC1(CC)CN(c2ccccc2NC(=O)Nc2csc(Cl)n2)c2c(O)ccc(F)c21` [Example 31, 1-(2-Chlorothiazol-4-yl)-3-(2-(3,3-diethyl-4-fluoro-7-hydroxyindolin-1-yl)phenyl)urea], in assay [1], the half-inhibitory concentration (IC50) came to 0.53 µM. Besides, the Ki in assay [2] (setting [3]) was determined as 3.3 nM.

As for `CC1(C)CN(c2ccccc2NC(=O)Nc2ccc(OC(F)(F)F)cc2)c2c(O)c(F)cc(-c3ccc(C(F)(F)F)cn3)c21` [Example 129, 1-(2-(6-Fluoro-7-hydroxy-3,3-dimethyl-4-(5-(trifluoromethyl)pyridin-2-yl)indolin-1-yl)phenyl)-3-(4-(trifluoromethoxy)phenyl)urea], the IC50 in assay [1] is 0.71 µM. Also, in assay [2] (setting [3]), the inhibitory constant (Ki) was found to be 15.3 nM.

With `CC(C)(C)c1nc(-c2c(F)cc(O)c3c2C(C)(C)CN3c2ccccc2NC(=O)Nc2ccc(OC(F)(F)F)cc2)no1` [Example 278, 1-(2-(4-(5-(tert-Butyl)-1,2,4-oxadiazol-3-yl)-5-fluoro-7-hydroxy-3,3-dimethylindolin-1-yl)phenyl)-3-(4-(trifluoromethoxy)phenyl)urea], the IC50 in assay [1] was 0.21 µM. In addition, in assay [2], the inhibition constant Ki came to 8.1 nM.

In the case of `CC1(C)CN(c2ccccc2NC(=O)Nc2ccc(OC(F)(F)F)cc2)c2c(O)ccc(-c3ccncc3)c21` [Example 113, 1-(2-(7-Hydroxy-3,3-dimethyl-4-(pyridin-4-yl)indolin-1-yl)phenyl)-3-(4-(trifluoromethoxy)phenyl)urea], the concentration for half-maximal inhibition (IC50) in assay [1] is 0.35 µM. In assay [2] (setting [3]), the inhibitory constant (Ki) was 5.9 nM.

Regarding `CC(C)n1nc(-c2c(F)cc(O)c3c2C(C)(C)CN3c2ccccc2NC(=O)Nc2nc3ccc(Cl)cc3s2)cc1C(F)(F)F` [Example 266, 1-(6-Chlorobenzo[d]thiazol-2-yl)-3-(2-(5-fluoro-7-hydroxy-4-(1-isopropyl-5-(trifluoromethyl)-1H-pyrazol-3-yl)-3,3-dimethylindolin-1-yl)phenyl)urea], the IC50 in assay [1] was found to be 0.13 µM. The Ki in assay [2] (setting [3]) is 41.1 nM.

Take `CC1(C)CN(c2ccccc2NC(=O)Nc2ccc(OC(F)(F)F)cc2)c2c(O)ccc(-c3ccc(C(F)(F)F)cc3)c21` [Example 196, 1-(2-(7-Hydroxy-3,3-dimethyl 4-(4-(trifluoromethyl)phenyl)indolin-1-yl)phenyl)-3-(4-(trifluoromethoxy)phenyl)urea]: the IC50 in assay [1] was 0.23 µM. For the same molecule, the Ki in assay [2] (setting [3]) worked out at 8 nM.

For `CC(C)n1nc(-c2c(F)cc(O)c3c2C(C)(C)CN3c2ccccc2NC(=O)Nc2ccc(OC(F)(F)F)cc2)cc1C(F)(F)F` [Example 271, 1-(2-(5-Fluoro-7-hydroxy-4-(1-isopropyl-5-(trifluoromethyl)-1H-pyrazol-3-yl)-3,3-dimethylindolin-1-yl)phenyl)-3-(4-(trifluoromethoxy)phenyl)urea], the 50% inhibitory concentration (IC50) in assay [1] stood at 0.07 µM. Besides, in assay [2] (setting [3]), the inhibition constant Ki turned out to be 12.4 nM.

On to `CC1(C)CN(c2ccccc2NC(=O)Nc2csc(Cl)n2)c2c(O)ccc(Cl)c21` [Example 58, 1-(2-(4-Chloro-7-hydroxy-3,3-dimethylindolin-1-yl)phenyl)-3-(2-chlorothiazol-4-yl)urea], for which, in assay [1], the IC50 turned out to be 0.32 µM. In addition, the Ki in assay [2] (setting [3]) was determined as 4.1 nM.

Take `CC1(C)CN(c2ccccc2NC(=O)Nc2nc3ccc(F)cc3s2)c2c(O)cc(F)c(-c3ccc(F)cc3)c21` [Example 213, 1-(2-(5-Fluoro-4-(4-fluorophenyl)-7-hydroxy-3,3-dimethylindolin-1-yl)phenyl)-3-(6-fluorobenzo[d]thiazol-2-yl)urea]: in assay [1], the half-maximal inhibitory concentration (IC50) came out at 0.38 µM. In addition, in assay [2] (setting [3]), the inhibition constant (Ki) stood at 25.4 nM.

Consider `CC(C)(C)Sc1ccc(O)c2c1C(C)(C)CN2c1ccccc1NC(=O)Nc1ccc(OC(F)(F)F)cc1` [Example 72, 1-(2-(4-(tert-Butylthio)-7-hydroxy-3,3-dimethylindolin-1-yl)phenyl)-3-(4-(trifluoromethoxy)phenyl)urea], for which the IC50 in assay [1] was 1.05 µM. Also, the Ki in assay [2] (setting [3]) is 32.2 nM.

For the molecule `CCOC(=O)C1(C)CN(c2ccccc2NC(=O)Nc2csc(Cl)n2)c2c(O)ccc(Cl)c21` (centres unmarked) [Example 75, Ethyl 4-chloro-1-(2-(3-(2-chlorothiazol-4-yl)ureido)phenyl)-7-hydroxy-3-methylindoline-3-carboxylate], in assay [1], the IC50 stood at 0.56 µM. For the same molecule, the inhibitory constant (Ki) in assay [2] (setting [3]) came to 7.1 nM.

As for `CC(C)(C)c1ccc(-c2c(F)cc(O)c3c2C(C)(C)CN3c2ccccc2NC(=O)Nc2ccc(OC(F)(F)F)cc2)cn1` [Example 165, 1-(2-(4-(6-(tert-Butyl)pyridin-3-yl)-5-fluoro-7-hydroxy-3,3-dimethylindolin-1-yl)phenyl)-3-(4-(trifluoromethoxy)phenyl)urea], the 50% inhibitory concentration (IC50) in assay [1] is 0.21 µM. Also, the Ki in assay [2] (setting [3]) was determined as 26.8 nM.

As for `Cc1cc(-c2c(F)cc(O)c3c2C(C)(C)CN3c2ccccc2NC(=O)Nc2ccc(OC(F)(F)F)cc2)cnc1F` [Example 192, 1-(2-(5-Fluoro-4-(6-fluoro-5-methylpyridin-3-yl)-7-hydroxy-3,3-dimethylindolin-1-yl)phenyl)-3-(4-(trifluoromethoxy)phenyl)urea], the IC50 in assay [1] is 0.26 µM. Also, the Ki in assay [2] (setting [3]) was 8.8 nM.

With `CCOC(=O)C1(C)CN(c2ccccc2NC(=O)Nc2ccc(OC(F)(F)F)cc2)c2c(O)ccc(Cl)c21` (centres unmarked) [Example 74, Ethyl 4-chloro-7-hydroxy-3-methyl-1-(2-(3-(4-(trifluoromethoxy)phenyl)ureido)phenyl)indoline-3-carboxylate], the half-maximal inhibitory concentration (IC50) in assay [1] is 3.11 µM. Further, the Ki in assay [2] (setting [3]) stood at 19.8 nM.

With `CCC1(CC)CN(c2ccccc2NC(=O)Nc2ccc(C(C)(C)C)cc2)c2c(O)ccc(C#N)c21` [Example 44, 1-(4-tert-Butylphenyl)-3-(2-(4-cyano-3,3-diethyl-7-hydroxyindolin-1-yl)phenyl)urea], the half-maximal inhibitory concentration (IC50) in assay [1] is 0.45 µM. For the same molecule, in assay [2] (setting [3]), the Ki was 6.9 nM.

With `CC1(C)CN(c2ccccc2NC(=O)Nc2csc(Cl)n2)c2c(O)ccc(-c3nc4cc(Cl)ccc4s3)c21` [Example 147, 1-(2-(4-(5-Chlorobenzo[d]thiazol-2-yl)-7-hydroxy-3,3-dimethylindolin-1-yl)phenyl)-3-(2-chlorothiazol-4-yl)urea], the IC50 in assay [1] worked out at 0.77 µM. Further, in assay [2] (setting [3]), the inhibition constant Ki is 70.8 nM.
